From PMC8198049, “Synthesis and Evaluation of the Tetracyclic Ring-System of Isocryptolepine and Regioisomers for Antimalarial, Antiproliferative and Antimicrobial Activities” (Molecules, 2021)
Where a name gives a salt, the structure may show the parent alone. Read-outs that look alike come from different tables or passages of the source.

Experiments:
[1] = test system: HCT116 (human colon cancer); assay: Antiproliferative assay (resazurin); type: cell-based; settings: for IC50: Homo sapiens, HCT-116, 72 h compound incubation, mean ± sem, two separate experiments
Experimental: (§1) Compounds tested in the antiproliferative assays were tested in 11 dilution points (0.02 µM–40 µM or 0.04 µM–80 µM). […] HCT116 cells were maintained in McCoy’s 5A media (Life Technologies, CA, USA), MDA-MB-231 cells were cultured in DMEM media (Life Technologies) with 10 mM HEPES (Life Technologies), whilst PC-3 cells were maintained in RPMI media (Life Technologies). All media were supplemented with 10% heat-inactivated fetal bovine serum (Australian source; Corning, CA, USA) and all cells were incubated at 37 °C in a humidified incubator with 5% CO2. Cells were seeded in 384-well plates (Greiner Bio-One, NC, USA) using the respective complete media. After 24 h cell seeding, compounds were added and antiproliferative activity was determined using the resazurin assay after 72 h compound incubation. Briefly, cells were incubated with 60 µM resazurin (Cayman, MI, USA) for 6 h at 37 °C and fluorescence signals were measured using a microplate reader (EnSight, PerkinElmer, Waltham, MA, USA).

[2] = test system: MDA-MB-231 (human breast adenocarcinoma); assay: Antiproliferative assay (resazurin); type: cell-based; settings: for IC50: Homo sapiens, MDA-MB-231, 72 h compound incubation, mean ± sem, two separate experiments
Experimental: as §1

[3] = test system: PC-3 (human prostate cancer); assay: Antiproliferative assay (resazurin); type: cell-based; settings: for IC50: Homo sapiens, 72 h compound incubation, mean ± sem, two separate experiments
Experimental: as §1

[4] = Cytotoxicity assay (resazurin-based viability); type: cell-based; settings: human, HEK293 cells, mean ± standard deviation, two separate experiments
Experimental: Fluorescence was measured using an EnSight plate reader (PerkinElmer, Waltham, MA, USA).

[5] = Antiplasmodial imaging assay; type: cell-based, Plasmodium falciparum; settings: human (HEK293) and Plasmodium falciparum (3D7)
Experimental: (§2) Compounds tested in the antiproliferative assays were tested in 11 dilution points (0.02 µM–40 µM or 0.04 µM–80 µM).
(§3) Antiplasmodial activity was determined as previously described by Duffy and Avery. […] After incubation, plates were stained with 4’,6-diamidino-2-phenylindole (DAPI) in a permeabilization buffer for 5 h at rt in the dark. Plates were imaged on the Opera confocal microplate image reader (PerkinElmer).

[6] = test system: Plasmodium falciparum 3D7 strain; assay: Antiplasmodial imaging assay; type: cell-based; settings: P. falciparum 3D7, 72 h, mean ± standard deviation, two separate experiments; for IC50: Plasmodium falciparum
Experimental: as §2, §3

[7] = HEK293 cells versus Plasmodium falciparum 3D7 culture, HEK293 vs 3D7, read-out: SI (selectivity index = cytotoxicity in HEK293/activity in 3D7)

melting point [°C]	IC50 [1] [µM]	IC50 [2] [µM]	IC50 [3] [µM]	IC50 [6] [µM]	Compound	IC50 at 72 h [4] [µM]	other results
–	0.15	0.59	0.83	–	COc1cccc2c1C(=O)c1c(O)c3c(c(O)c1C2=O)C[C@@](O)(C(=O)CO)C[C@@H]3O[C@H]1C[C@H](N)[C@H](O)[C@H](C)O1 [Doxorubicin, reference compound]	–	–
–	0.085	0.3	0.27	0.093 ± 0.002	COc1ccc(C[C@H](N)C(=O)N[C@H]2[C@@H](O)[C@H](n3cnc4c(N(C)C)ncnc43)O[C@@H]2CO)cc1 [Puromycin, puromycin, reference compound]	0.003 ± 0.003	selectivity ratio at 72 h [5]: 0.03
–	–	–	–	0.001 ± 7e-05	C[C@H]1[C@@H](O)O[C@@H]2O[C@@]3(C)CC[C@H]4[C@H](C)CC[C@@H]1[C@@]24OO3 [DHA, dihydroartemisinin, reference compound]	–	selectivity ratio at 72 h [5, 7]: 74
279 to 280	–	–	–	–	C[n+]1cccc2c3[nH]c4ccccc4c3ccc21 (as salt: hydroiodid) [Compound 21, 4-Methyl-11H-pyrido[3,2-a]carbazolium Iodide]	–	–
164	–	–	–	–	c1cnc2c(c1)ccc1c3ccccc3[nH]c12 [Compound 18, 11H-Pyrido[2,3-a]carbazole]	–	–
–	17	16.4	–	2.41 ± 0.042	c1cnc2c(c1)ccc1[nH]c3ccccc3c12 [Compound 20, 7H-Pyrido[3,2-c]carbazole]	–	% at 40 µM (PC-3) ([3]; PC-3, 40 µM): 47% at 40 µM

The next lines start with the molecule.

Compound	melting point [°C]	IC50 [1] [µM]	IC50 [2] [µM]	IC50 [3] [µM]	IC50 [6] [µM]	IC50 at 72 h [4] [µM]	other results
C[n+]1cccc2c3c(ccc21)[nH]c1ccccc13 (as salt: hydroiodid) [Compound 10, 4-Methyl-7H-pyrido[2,3-c]carbazolium Iodide]	284 to 286	–	–	–	–	–	–
C=CCn1cc2c3ccccc3nc-2c2ccccc21 [Compound 3c, 5-Allyl-5H-indolo[3,2-c]quinoline]	–	1.24 ± 0.08	3.06 ± 0.467	1.3 ± 0.051	1.2 ± 0.032	3.15 ± 0.04	selectivity ratio at 72 h [5, 7]: 2.6
CCN(CC)CCCC(C)Nc1ccnc2cc(Cl)ccc12 (centres unmarked) [Chloroquine, chloroquine, reference compound]	–	–	–	–	–	> 4	–
c1ccc2c(c1)[nH]c1c3cccnc3ccc21 [Compound 16, 11H-pyrido[3,2-a] carbazole]	–	–	–	–	–	–	% at 80 µM (printed in HCT116 IC50 column) ([1]; HCT116, 80 µM): 82% at 80 µM; % at 80 µM (printed in MDA-MB-231 IC50 column) ([2]; MDA-MB-231, 80 µM): 80% at 80 µM; 3D7 IC50 ([6]; listed as 15): little to no activity
CCn1cc2c3ccccc3nc-2c2ccccc21 [Compound 3b, 5-Ethyl-5H-indolo[3,2-c]quinoline]	198	0.742 ± 0.011	0.998 ± 0.3	2.44 ± 0.094	1.318 ± 0.005	3.08 ± 0.049	selectivity ratio at 72 h [5, 7]: 2.3
